Measurements from patent US20240423971A1, “APPLICATION OF RIP2 INHIBITOR COMBINED WITH CHEMOTHERAPY DRUG” (NINGBO COMBIREG PHARMACEUTICAL TECHNOLOGY CO., LTD., priority 2021, published 2024).

Key:
melanoma (B16F10) = assay: Melanoma (B16F10) tumor-bearing model, GSK583 combined with PTX; assay type: in vivo, C57BL/6 mice; conditions: GSK583 1 mg/kg
Method: Both of the test substances PTX (Sigma) and GSK583 (MCE) were prepared as a 20× DMSO stock solution, which was diluted with normal saline containing 5% (v/v) polyoxyethylene castor oil (Cremophor EL) to the administration concentration before use. Experimental animals and tumor strains: SPF grade male wild-type C57BL/6 mice, 6 to 8 weeks old, purchased from Beijing Vital River Laboratory Animal Technology Co., Ltd. Cells used in the experiment: murine melanoma cell line (B16-F10), purchased from ATCC. Mice were randomly divided into 4 groups with 8 mice in each group based on body weight according to the method shown in (A of FIG. 1 and B of FIG. 1), namely: (i) vehicle control group; (ii) GSK583 (1 mg/kg) group; (iii) PTX (10 mg/kg) group; (iv) GSK583 (1 mg/kg)+PTX (10 mg/kg) group. PTX, GSK583, and vehicle were administered intravenously once every 4 days for a total of 4 doses. The mice were subcutaneously inoculated with B16-F10 cells with a concentration of 2× 10^6 cells/mL and 0.1 mL/mouse, and the day of inoculation was recorded as DAY 0. The administration was started on DAY 1. During the administration, the animals were weighed every 2 days. The long diameter and short diameter of the tumor were measured with a vernier caliper. The tumor size was calculated by the formula: (½)×long diameter×(short diameter) 2. The experiment was terminated on DAY 15. After the mice were euthanized and dissected, the tumor was weighed and the tumor inhibition rate was calculated.

[1] = tested on: immune cells in tumor tissues of melanoma (B16F10) tumor-bearing model; assay: Flow cytometry detection of proportion of immune cells in tumor microenvironment of melanoma tumor-bearing mice; assay type: in vivo, C57BL/6 mice; conditions: GSK583 1 mg/kg, PTX 10 mg/kg, combination vs vehicle, GSK583-alone
Method: Preparation of enzyme lysis buffer: 1 g of collagenase type IV (Sigma C5138), 100 mg of hyaluronidase (Sigma H6254), and 20,000 units of DNase type IV (Sigma D5025) were added to 80 mL of HBSS and mixed well. The mixture was then added with HBSS to make up a volume of 100 mL to obtain a 100×enzyme lysis buffer, which was filtered through a 0.22 μm filter membrane and stored at −20° C., and diluted with HBSS to 1× concentration before use.
Dissociation of tumor tissues: Tumor tissues were removed and weighed (0.04 to 1 g), then cut into small pieces of 2×2 mm with a scalpel, added with 2.5 mL of enzyme lysis mixture, and transferred to a gentleMACS C Tube (Miltenyi Biotec 130-096-334). The C Tube was inverted on a gentleMACS Dissociator (Miltenyi Biotec 130-093-235), and the program “gentleMACS Program m_impTumor_02” was run. The C Tube was removed from the gentleMACS Dissociator and incubated at 37° C. for 40 minutes. The C Tube was inverted on the gentleMACS Dissociator again, and the program “gentleMACS Program m_impTumor_03” was run. […]
Flow cytometry detection: After counting the dissociated tumor tissues, the cell concentration was adjusted, and 200 μL/well of cells (5 to 10×10^5 cells/well) were added to a 96 U-bottom plate. […] The cells were resuspended in 100 μL/well of cell staining buffer, and then detected by flow cytometry.

## CC(=O)O[C@H]1C(=O)[C@@]2(C)[C@H]([C@H](OC(=O)c3ccccc3)[C@]3(O)C[C@H](OC(=O)[C@H](O)[C@@H](NC(=O)c4ccccc4)c4ccccc4)C(C)=C1C3(C)C)[C@]1(OC(C)=O)CO[C@@H]1C[C@@H]2O [PTX, Paclitaxel]
Melanoma (B16F10); B16-F10 in C57BL/6 mice, PTX 10 mg/kg i.v. every 4 days x4, DAY 15, vs control group
  tumor weight at the end of the administration: significantly and statistically lower than that of the control group
Melanoma (B16F10); B16-F10 in C57BL/6 mice, PTX 10 mg/kg i.v. every 4 days x4, vs control group
  growth rate of tumor volume: slower than that of the control group
Melanoma (B16F10); B16-F10 s.c. in C57BL/6 mice, PTX 10 mg/kg i.v. once every 4 days, 4 doses, to DAY 15
  tumor growth compared to the vehicle control group: significantly inhibited tumor growth
[1]
  proportion of neutrophils in tumor tissues: significant decrease
